Several values for one entry are separate records, joined by “and”; a condition that tells them apart may be missing. Equal entries are not always repeated.
Columns and labels:
Assay type in all cases: cell-based
rat ASIC1a [1] = target: T1, rat ASIC1a (Rattus norvegicus, UniProt P55926); test: Kinetics of closed-state (pH 7.1-induced) desensitization and recovery; conditions: 100 nM
T1 construct: expressed in transfected cells
T1 sequence (P55926 1-526): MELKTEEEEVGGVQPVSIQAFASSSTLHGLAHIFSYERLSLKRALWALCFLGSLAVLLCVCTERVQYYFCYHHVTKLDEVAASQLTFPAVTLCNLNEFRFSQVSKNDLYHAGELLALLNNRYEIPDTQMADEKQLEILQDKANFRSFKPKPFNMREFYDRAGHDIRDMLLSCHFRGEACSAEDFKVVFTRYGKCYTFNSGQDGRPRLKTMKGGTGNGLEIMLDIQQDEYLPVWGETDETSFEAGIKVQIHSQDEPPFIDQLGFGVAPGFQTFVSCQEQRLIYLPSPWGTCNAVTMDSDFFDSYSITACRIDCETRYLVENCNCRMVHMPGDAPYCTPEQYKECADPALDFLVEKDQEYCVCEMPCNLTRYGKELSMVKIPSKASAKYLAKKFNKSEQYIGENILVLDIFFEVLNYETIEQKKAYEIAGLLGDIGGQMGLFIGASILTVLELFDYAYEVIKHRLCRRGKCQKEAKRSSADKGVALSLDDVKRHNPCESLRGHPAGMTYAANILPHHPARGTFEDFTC
Method: (§1) Chinese Hamster Ovary (CHO) cells stably expressing rat ASIC1a were cultured in Ham’s F12, supplemented with 10% FBS, 1% penicillin–streptomycin and 500 µg/mL G418 and incubated at 37 °C with 5% CO2. Transient transfections of rASIC1a and cASIC1 wild-type or mutant channels in CHO cells were performed with Lipofectamine 3000 (Thermo Fisher Scientific) according to the manufacturer’s recommendations. The green fluorescent protein (GFP) cDNA (at 1/10 the amount of channel cDNA) was co-transfected with channel cDNA to aid the identification of transfected cells under the microscope in patch clamp experiments. All cDNAs were sequence verified.
(§2) Cells were freshly dissociated with CellStripper (Corning) and dispersed in a chamber on the stage of an inverted microscope. Upon formation of the whole-cell conformation, the cell was lifted from the bottom of the chamber and placed at the tip of a tubing perfusing an extracellular solution containing (in mM): 149 NaCl, 2 CaCl2, 4 KCl, 1 MgCl2, 5 glucose, 10 HEPES, pH 7.4, 310 mOsm/L. Extracellular solutions at more basic or acidic pHs were made by titrating the above pH 7.4 solution with NaOH or HCl (5 mM MES was added to solutions at pH 6.0 and lower). Pipette electrodes were filled with an intracellular solution containing (in mM): 135 KCl, 4 MgATP, 0.3 Na2GTP, 10 EGTA, and 20 HEPES, pH 7.2, 290 mOsm/L.
(§3) All recordings were performed at room temperature using an Axopatch 200B amplifier and pClamp 11 software (Molecular Devices). Currents were measured by whole-cell patch clamp, digitized at 10 kHz and lowpass filtered at 2 kHz. Series resistance was 75% compensated. Responses were elicited by rapid perfusion of acidic solutions using the SF-77B Fast-Step Perfusion device (Warner Instruments) for 40 ms once every 30 s (unless indicated otherwise) and recorded till steady state was reached. The holding potential was 0 mV unless indicated otherwise.
(§4) Baseline values (i.e., current amplitudes at the conditioning pH) were subtracted to obtain responses evoked by the test pH. Responses were normalized for each cell before averaging (see figure legends for more detail on normalization for each type of experiment). Concentration–response data were fitted to a logistic function of the form: R = (A1–A2)/(1 + (C/C0)^h)+A2, where R is the normalized response, C is either pH or compound concentration, C0 is the pH/concentration at which half-maximal response occurs (pH50 or IC50), h is the Hill coefficient, and A1 and A2 are constants. Kinetic parameters were obtained by fitting the data with either a single or double exponential function. Fitted data are shown as solid, dashed, or dotted curves.

rat ASIC1a [2] = target: T1, rat ASIC1a; test: pH dependence of channel activation (whole-cell patch clamp); conditions: holding pH 8.2
Method: as §1, §2, §3, §4

rat ASIC1a [3] = target: T1, rat ASIC1a; test: pH dependence of steady-state desensitization (whole-cell patch clamp)
Method: as §1, §2, §3, §4

max %response of channel activation (rat ASIC1a [2]; 10 nM): 95.3 ± 1.6%
pH50 of channel activation (rat ASIC1a [2]; 10 nM): 6.02 ± 0.03
max %response of channel activation (rat ASIC1a [2]; 30 nM): 88.1 ± 1.0%
pH50 of channel activation (rat ASIC1a [2]; 30 nM): 5.87 ± 0.02
max %response of channel activation (rat ASIC1a [2]; 100 nM): 82.6 ± 0.3%
pH50 of channel activation (rat ASIC1a [2]; 100 nM): 5.73 ± 0.00
max %response of channel activation (rat ASIC1a [2]; 300 nM): 84.1 ± 0.5%
pH50 of channel activation (rat ASIC1a [2]; 300 nM): 5.70 ± 0.01
max %response of channel activation (rat ASIC1a [2]; 1000 nM): 87.4 ± 0.5%
pH50 of channel activation (rat ASIC1a [2]; 1000 nM): 5.68 ± 0.01
max %response of channel activation (rat ASIC1a [2]; 3000 nM): 82.9 ± 0.5%
pH50 of channel activation (rat ASIC1a [2]; 3000 nM): 5.70 ± 0.01
SMILES: Cc1cc(N2CC(Oc3cc(F)c4c(N)n[nH]c4c3)C2)c(F)cn1 [JNJ-67869386]
current remaining during pH 7.1-induced desensitization, normalized to pre-pH 7.1 pH 6.0 peak, mean (rat ASIC1a [1]; 0.8 s in pH 7.1 (source data Fig. 3c)): 75.8
current remaining during pH 7.1-induced desensitization, normalized to pre-pH 7.1 pH 6.0 peak, mean (rat ASIC1a [1]; 1.6 s in pH 7.1): 70.1
current remaining during pH 7.1-induced desensitization, normalized to pre-pH 7.1 pH 6.0 peak, mean (rat ASIC1a [1]; 3.2 s in pH 7.1): 61.0
current remaining during pH 7.1-induced desensitization, normalized to pre-pH 7.1 pH 6.0 peak, mean (rat ASIC1a [1]; 6.4 s in pH 7.1): 50.5
current remaining during pH 7.1-induced desensitization, normalized to pre-pH 7.1 pH 6.0 peak, mean (rat ASIC1a [1]; 12.8 s in pH 7.1): 36.9
current remaining during pH 7.1-induced desensitization, normalized to pre-pH 7.1 pH 6.0 peak, mean (rat ASIC1a [1]; 25.6 s in pH 7.1): 20.0
current remaining during pH 7.1-induced desensitization, normalized to pre-pH 7.1 pH 6.0 peak, mean (rat ASIC1a [1]; 51.2 s in pH 7.1): 8.7
current remaining during pH 7.1-induced desensitization, normalized to pre-pH 7.1 pH 6.0 peak, mean (rat ASIC1a [1]; 102.4 s in pH 7.1): 4.9
current remaining during pH 7.1-induced desensitization, normalized to pre-pH 7.1 pH 6.0 peak, mean (rat ASIC1a [1]; 204.8 s in pH 7.1): 3.1
time constant of development of pH 7.1-induced desensitization (rat ASIC1a [1]; single exponential, pH 6.0 test pulses): 15.1 s and 15.1 ± 1.3 s
pH50 of steady-state desensitization (rat ASIC1a [3]; 0.1 µM): 7.30 ± 0.03
pH50 of steady-state desensitization (rat ASIC1a [3]; 1 µM): 7.27 ± 0.01
pH50 of steady-state desensitization (rat ASIC1a [3]; 10 µM): 7.26 ± 0.01
steady-state desensitization, current % of conditioning pH 8.2, mean (rat ASIC1a [3]; conditioning pH 6.8, 100 nM): 0.13%
steady-state desensitization, current % of conditioning pH 8.2, mean (rat ASIC1a [3]; conditioning pH 6.8, 1 uM): 0.0205%
steady-state desensitization, current % of conditioning pH 8.2, mean (rat ASIC1a [3]; conditioning pH 6.8, 10 uM): -0.0952%
steady-state desensitization, current % of conditioning pH 8.2, mean (rat ASIC1a [3]; conditioning pH 7.1, 100 nM): 1.6%
steady-state desensitization, current % of conditioning pH 8.2, mean (rat ASIC1a [3]; conditioning pH 7.1, 1 uM): 9.0%
steady-state desensitization, current % of conditioning pH 8.2, mean (rat ASIC1a [3]; conditioning pH 7.1, 10 uM): 10.8%
steady-state desensitization, current % of conditioning pH 8.2, mean (rat ASIC1a [3]; conditioning pH 7.4, 100 nM): 88.8%
steady-state desensitization, current % of conditioning pH 8.2, mean (rat ASIC1a [3]; conditioning pH 7.4, 1 uM): 84.6%
steady-state desensitization, current % of conditioning pH 8.2, mean (rat ASIC1a [3]; conditioning pH 7.4, 10 uM): 85.5%
steady-state desensitization, current % of conditioning pH 8.2, mean (rat ASIC1a [3]; conditioning pH 7.8, 100 nM): 98.6%
steady-state desensitization, current % of conditioning pH 8.2, mean (rat ASIC1a [3]; conditioning pH 7.8, 1 uM): 95.5%
steady-state desensitization, current % of conditioning pH 8.2, mean (rat ASIC1a [3]; conditioning pH 7.8, 10 uM): 95.9%
steady-state desensitization, current % of conditioning pH 8.2, mean (rat ASIC1a [3]; conditioning pH 8.2, 100 nM): 100%
steady-state desensitization, current % of conditioning pH 8.2, mean (rat ASIC1a [3]; conditioning pH 8.2, 1 uM): 100%
steady-state desensitization, current % of conditioning pH 8.2, mean (rat ASIC1a [3]; conditioning pH 8.2, 10 uM): 100%
